Where two headings read alike, the source gives them in different places.
System: C57BL/6N mice
Conditions: TPHP-L group, liver
[1] = adduct [M+Na]+, first of two TG 52:3 lines
[2] = adduct [M+Na]+, second of two TG 52:3 lines

SMILES: O=P(Oc1ccccc1)(Oc1ccccc1)Oc1ccccc1 [TPHP, triphenyl phosphate]
- Z-score of CAR 6:0 (adduct [M+H]+): 0.06
- Z-score of CAR 10:0 (adduct [M+H]+): 0.42
- Z-score of CAR 12:0 (adduct [M+H]+): 0.80
- Z-score of CAR 16:2 (adduct [M+H]+): -0.06
- Z-score of CAR 18:2 (adduct [M+H]+): -0.03
- Z-score of CAR 18:4 (adduct [M+H]+): 0.78
- Z-score of CAR 20:4 (adduct [M+H]+): 0.82
- Z-score of NAE 14:0 (adduct [M+H]+): -0.48
- Z-score of NAE 20:5 (adduct [M+H]+): 1.00
- Z-score of PC 40:6 (adduct [M+H]+): -0.17
- Z-score of PS 36:4 (adduct [M+H]+): 0.68
- Z-score of SM 27:5;O2 (adduct [M+H]+): 0.55
- Z-score of SM 28:3;O3 (adduct [M+H]+): 0.44
- Z-score of SM 31:3;O3 (adduct [M+H]+): -0.11
- Z-score of SM 41:2;O2 (adduct [M+H]+): 0.71
- average intensity of CAR 6:0 (adduct [M+H]+): 2396721
- average intensity of CAR 10:0 (adduct [M+H]+): 1504841
- average intensity of CAR 12:0 (adduct [M+H]+): 2823213
- average intensity of CAR 16:2 (adduct [M+H]+): 1645671
- average intensity of CAR 18:2 (adduct [M+H]+): 11661319
- average intensity of CAR 18:4 (adduct [M+H]+): 10920113
- average intensity of CAR 20:4 (adduct [M+H]+): 36994205
- average intensity of NAE 14:0 (adduct [M+H]+): 681808
- average intensity of NAE 20:5 (adduct [M+H]+): 53457329
- average intensity of PC 40:6 (adduct [M+H]+): 25730542
- average intensity of PS 36:4 (adduct [M+H]+): 1577436
- average intensity of SM 27:5;O2 (adduct [M+H]+): 18375860
- average intensity of SM 28:3;O3 (adduct [M+H]+): 1750893
- average intensity of SM 31:3;O3 (adduct [M+H]+): 1688236
- average intensity of SM 41:2;O2 (adduct [M+H]+): 9894007
- Z-score of BMP 25:4 (adduct [M+NH4]+): -0.15
- Z-score of BMP 30:5 (adduct [M+NH4]+): -0.42
- Z-score of BMP 38:4 (adduct [M+NH4]+): -0.33
- Z-score of PG 21:2 (adduct [M+NH4]+): -0.09
- Z-score of PI 39:10 (adduct [M+NH4]+): -0.15
- Z-score of TG 48:11 (adduct [M+NH4]+): -0.30
- Z-score of TG 55:4 (adduct [M+NH4]+): -0.04
- average intensity of BMP 25:4 (adduct [M+NH4]+): 28243710
- average intensity of BMP 30:5 (adduct [M+NH4]+): 997136
- average intensity of BMP 38:4 (adduct [M+NH4]+): 9007436
- average intensity of PG 21:2 (adduct [M+NH4]+): 4648685
- average intensity of PI 39:10 (adduct [M+NH4]+): 2117103
- average intensity of TG 48:11 (adduct [M+NH4]+): 18422444
- average intensity of TG 55:4 (adduct [M+NH4]+): 5767515
- Z-score of Cer 42:1;O2 (adduct [M+Na]+): -0.14
- Z-score of Cer 64:6;O2 (adduct [M+Na]+): 0.49
- Z-score of DG 19:1 (adduct [M+Na]+): -0.58
- Z-score of DG 26:5 (adduct [M+Na]+): -0.57
- Z-score of DG 26:6 (adduct [M+Na]+): -0.39
- Z-score of PC 29:5 (adduct [M+Na]+): -0.26
- Z-score of PC 38:6 (adduct [M+Na]+): -0.37
- Z-score of PC 42:9 (adduct [M+Na]+): -0.33
- Z-score of PS 40:7 (adduct [M+Na]+): 0.24
- Z-score of TG 52:2 (adduct [M+Na]+): 0.37
- Z-score of TG 52:4 (adduct [M+Na]+): 0.20
- average intensity of Cer 42:1;O2 (adduct [M+Na]+): 2208919
- average intensity of Cer 64:6;O2 (adduct [M+Na]+): 16081083
- average intensity of DG 19:1 (adduct [M+Na]+): 5508
- average intensity of DG 26:5 (adduct [M+Na]+): 1202226
- average intensity of DG 26:6 (adduct [M+Na]+): 565410
- average intensity of PC 29:5 (adduct [M+Na]+): 8118187
- average intensity of PC 38:6 (adduct [M+Na]+): 13132954
- average intensity of PC 42:9 (adduct [M+Na]+): 1167997
- average intensity of PS 40:7 (adduct [M+Na]+): 3607887
- average intensity of TG 52:2 (adduct [M+Na]+): 9167552
- average intensity of TG 52:4 (adduct [M+Na]+): 2497450
- Z-score of TG 52:3 [1]: 0.19
- average intensity of TG 52:3 [1]: 1036928
- Z-score of TG 52:3 [2]: 0.18
- average intensity of TG 52:3 [2]: 8512501
- Z-score of Cer 40:1;O2 (adduct [M-H]-): -0.23
- Z-score of Cer 41:1;3O(2OH) (adduct [M-H]-): -0.38
- Z-score of Cer 42:1;3O(2OH) (adduct [M-H]-): -0.39
- Z-score of Cer 43:1;3O(2OH) (adduct [M-H]-): -0.38
- Z-score of FA 10:1 (adduct [M-H]-): -0.53
- Z-score of FA 14:2 (adduct [M-H]-): 0.22
- Z-score of FA 16:2;O (adduct [M-H]-): 0.94
- Z-score of FA 19:2;O2 (adduct [M-H]-): 0.68
- Z-score of PG 34:2 (adduct [M-H]-): -0.56
- Z-score of PG 44:12 (adduct [M-H]-): -0.57
- Z-score of PI 36:3 (adduct [M-H]-): -0.53
- Z-score of PI 38:4 (adduct [M-H]-): 0.83
- average intensity of Cer 40:1;O2 (adduct [M-H]-): 383914
- average intensity of Cer 41:1;3O(2OH) (adduct [M-H]-): 1471085
- average intensity of Cer 42:1;3O(2OH) (adduct [M-H]-): 280519
- average intensity of Cer 43:1;3O(2OH) (adduct [M-H]-): 206714
- average intensity of FA 10:1 (adduct [M-H]-): 231265
- average intensity of FA 14:2 (adduct [M-H]-): 1600712
- average intensity of FA 16:2;O (adduct [M-H]-): 1172357
- average intensity of FA 19:2;O2 (adduct [M-H]-): 7389373
- average intensity of PG 34:2 (adduct [M-H]-): 228532
- average intensity of PG 44:12 (adduct [M-H]-): 36906
- average intensity of PI 36:3 (adduct [M-H]-): 498699
- average intensity of PI 38:4 (adduct [M-H]-): 49874871
